In PubChem BioAssay (NCI):
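Five concentrations, 48 hours, 96-well plates. GI50 = concentration required for 50% inhibition of growth. At the TGI there is no net growth.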

Assays:
Experiment in all cases: growth of human tumour cells (NCI), 48 h
A498 renal = tested on: A498 renal
HT29 colon = tested on: HT29 colon
OVCAR-3 ovarian = tested on: OVCAR-3 ovarian
U251 CNS = tested on: U251 CNS
SN12C renal = tested on: SN12C renal
MALME-3M melanoma = tested on: MALME-3M melanoma
SF-539 CNS = tested on: SF-539 CNS
SW-620 colon = tested on: SW-620 colon
MDA-MB-231 breast = tested on: MDA-MB-231 breast
HS 578T breast = tested on: HS 578T breast
CAKI-1 renal = tested on: CAKI-1 renal
TK-10 renal = tested on: TK-10 renal
SF-295 CNS = tested on: SF-295 CNS
HCC-2998 colon = tested on: HCC-2998 colon
SK-MEL-2 melanoma = tested on: SK-MEL-2 melanoma
MCF7 breast = tested on: MCF7 breast
COLO 205 colon = tested on: COLO 205 colon
MOLT-4 leukemia = tested on: MOLT-4 leukemia
SK-MEL-5 melanoma = tested on: SK-MEL-5 melanoma
OVCAR-8 ovarian = tested on: OVCAR-8 ovarian
HCT-15 colon = tested on: HCT-15 colon
LOX IMVI melanoma = tested on: LOX IMVI melanoma
HOP-92 NSCLC = tested on: HOP-92 NSCLC
NCI/ADR-RES ovarian = tested on: NCI/ADR-RES ovarian
MDA-MB-435 = tested on: MDA-MB-435
NCI-H23 lung = tested on: NCI-H23 lung
SK-MEL-28 melanoma = tested on: SK-MEL-28 melanoma
NCI-H226 lung = tested on: NCI-H226 lung
KM12 colon = tested on: KM12 colon
EKVX NSCLC = tested on: EKVX NSCLC
UACC-257 melanoma = tested on: UACC-257 melanoma
IGROV1 ovarian = tested on: IGROV1 ovarian
NCI-H522 lung = tested on: NCI-H522 lung
HCT-116 colon = tested on: HCT-116 colon
T-47D breast = tested on: T-47D breast
HOP-62 NSCLC = tested on: HOP-62 NSCLC
UO-31 renal = tested on: UO-31 renal
SNB-19 CNS = tested on: SNB-19 CNS
DU-145 prostate = tested on: DU-145 prostate
RXF 393 renal = tested on: RXF 393 renal
SNB-75 CNS = tested on: SNB-75 CNS
PC-3 prostate = tested on: PC-3 prostate
HL-60(TB) leukemia = tested on: HL-60(TB) leukemia
A549 NSCLC = tested on: A549 NSCLC
OVCAR-4 ovarian = tested on: OVCAR-4 ovarian
OVCAR-5 ovarian = tested on: OVCAR-5 ovarian
UACC-62 melanoma = tested on: UACC-62 melanoma
SR leukemia = tested on: SR leukemia
K-562 leukemia = tested on: K-562 leukemia
NCI-H460 lung = tested on: NCI-H460 lung
SF-268 CNS = tested on: SF-268 CNS
RPMI-8226 leukemia = tested on: RPMI-8226 leukemia
ACHN renal = tested on: ACHN renal
CCRF-CEM leukemia = tested on: CCRF-CEM leukemia
M14 melanoma = tested on: M14 melanoma

Work on `O=C(Nc1ccc(-n2cc(-c3ccncc3)c(-c3ccc(O)c(Cl)c3)n2)cc1)Nc1cc(C(F)(F)F)cc(C(F)(F)F)c1` yielded a GI50 (A498 renal) of 3.68 µM, a TGI (A498 renal) of 16.3 µM and a GI50 (HT29 colon) of 8.94 µM. It also gave a TGI (HT29 colon) of 22.7 µM, a GI50 (OVCAR-3 ovarian) of 2.73 µM and a TGI (OVCAR-3 ovarian) of 6.76 µM. It also gave a GI50 (U251 CNS) of 2.98 µM, a TGI (U251 CNS) of 12.4 µM and a GI50 (SN12C renal) of 4.12 µM. For the same compound, the TGI (SN12C renal) was 16.3 µM, the GI50 (MALME-3M melanoma) was 2.59 µM and the TGI (MALME-3M melanoma) was 13.9 µM. The GI50 (SF-539 CNS) was 3.81 µM, the TGI (SF-539 CNS) was 15.3 µM and the GI50 (SW-620 colon) was 5.93 µM. The TGI (SW-620 colon) was 22 µM, the GI50 (MDA-MB-231 breast) was 3.61 µM and the TGI (MDA-MB-231 breast) was 14.6 µM. The GI50 (HS 578T breast) was 1.94 µM, the TGI (HS 578T breast) was 7.41 µM and the GI50 (CAKI-1 renal) was 3.34 µM. It also gave a TGI (CAKI-1 renal) of 12.8 µM, a GI50 (TK-10 renal) of 3.55 µM and a TGI (TK-10 renal) of 13.6 µM. The GI50 (SF-295 CNS) was 2.08 µM, the TGI (SF-295 CNS) was 6.56 µM and the GI50 (HCC-2998 colon) was 5.03 µM. The TGI (HCC-2998 colon) was 22.1 µM, the GI50 (SK-MEL-2 melanoma) was 2.2 µM and the TGI (SK-MEL-2 melanoma) was 4.98 µM. The GI50 (MCF7 breast) was 3.3 µM, the TGI (MCF7 breast) was 13.2 µM and the GI50 (COLO 205 colon) was 2.62 µM. It also gave a TGI (COLO 205 colon) of 7.83 µM, a GI50 (MOLT-4 leukemia) of 4.29 µM and a TGI (MOLT-4 leukemia) of 18.3 µM. The GI50 (SK-MEL-5 melanoma) was 4.08 µM, the TGI (SK-MEL-5 melanoma) was 15.5 µM and the GI50 (OVCAR-8 ovarian) was 3.44 µM. The TGI (OVCAR-8 ovarian) was 11.7 µM, the GI50 (HCT-15 colon) was 3.36 µM and the TGI (HCT-15 colon) was 12.6 µM. It also gave a GI50 (LOX IMVI melanoma) of 3.73 µM, a TGI (LOX IMVI melanoma) of 23.7 µM and a GI50 (HOP-92 NSCLC) of 1.64 µM. It also gave a TGI (HOP-92 NSCLC) of 5.74 µM, a GI50 (NCI/ADR-RES ovarian) of 4.94 µM and a TGI (NCI/ADR-RES ovarian) of 22.5 µM. It also gave a GI50 (MDA-MB-435) of 3.37 µM, a TGI (MDA-MB-435) of 12.8 µM and a GI50 (NCI-H23 lung) of 3.63 µM. The TGI (NCI-H23 lung) was 18.4 µM, the GI50 (SK-MEL-28 melanoma) was 4.48 µM and the TGI (SK-MEL-28 melanoma) was 16.5 µM. It also gave a GI50 (NCI-H226 lung) of 13.3 µM, a TGI (NCI-H226 lung) of 29.4 µM and a GI50 (KM12 colon) of 3.3 µM. For the same compound, the TGI (KM12 colon) was 11.7 µM, the GI50 (EKVX NSCLC) was 3.57 µM and the TGI (EKVX NSCLC) was 15.6 µM. For the same compound, the GI50 (UACC-257 melanoma) was 5.81 µM, the TGI (UACC-257 melanoma) was 20.5 µM and the GI50 (IGROV1 ovarian) was 4.61 µM. The TGI (IGROV1 ovarian) was 18.9 µM, the GI50 (NCI-H522 lung) was 3.79 µM and the TGI (NCI-H522 lung) was 15 µM. For the same compound, the GI50 (HCT-116 colon) was 3.78 µM, the TGI (HCT-116 colon) was 13.7 µM and the GI50 (T-47D breast) was 3.28 µM. The TGI (T-47D breast) was 10.7 µM, the GI50 (HOP-62 NSCLC) was 5.02 µM and the TGI (HOP-62 NSCLC) was 17.3 µM. It also gave a GI50 (UO-31 renal) of 1.94 µM, a TGI (UO-31 renal) of 12.6 µM and a GI50 (SNB-19 CNS) of 4.45 µM. The TGI (SNB-19 CNS) was 16.5 µM, the GI50 (DU-145 prostate) was 5.97 µM and the TGI (DU-145 prostate) was 18.9 µM. The GI50 (RXF 393 renal) was 2.54 µM, the TGI (RXF 393 renal) was 6.9 µM and the GI50 (SNB-75 CNS) was 2.07 µM. For the same compound, the TGI (SNB-75 CNS) was 12.6 µM, the GI50 (PC-3 prostate) was 2.92 µM and the TGI (PC-3 prostate) was 11.5 µM. For the same compound, the GI50 (HL-60(TB) leukemia) was 2.98 µM, the TGI (HL-60(TB) leukemia) was 8.09 µM and the GI50 (A549 NSCLC) was 4.06 µM. For the same compound, the TGI (A549 NSCLC) was 15.5 µM, the GI50 (OVCAR-4 ovarian) was 2.92 µM and the TGI (OVCAR-4 ovarian) was 10.7 µM. It also gave a GI50 (OVCAR-5 ovarian) of 3.17 µM, a TGI (OVCAR-5 ovarian) of 12.7 µM and a GI50 (UACC-62 melanoma) of 3.02 µM. The TGI (UACC-62 melanoma) was 10.6 µM, the GI50 (SR leukemia) was 6.06 µM and the TGI (SR leukemia) was 31.3 µM. The GI50 (K-562 leukemia) was 4.07 µM, the TGI (K-562 leukemia) was 17.9 µM and the GI50 (NCI-H460 lung) was 3.69 µM. The TGI (NCI-H460 lung) was 14.6 µM, the GI50 (SF-268 CNS) was 4.37 µM and the TGI (SF-268 CNS) was 16 µM. It also gave a GI50 (RPMI-8226 leukemia) of 2.81 µM, a TGI (RPMI-8226 leukemia) of 9.95 µM and a GI50 (ACHN renal) of 3.24 µM. For the same compound, the TGI (ACHN renal) was 11.7 µM, the GI50 (CCRF-CEM leukemia) was 4.06 µM and the TGI (CCRF-CEM leukemia) was 19.2 µM. For the same compound, the GI50 (M14 melanoma) was 3.6 µM and the TGI (M14 melanoma) was 13.6 µM.
